Entries after “also recorded” stand apart in the source; their conditions may differ. Like-named read-outs stand apart in the source and are kept apart here.
Columns and labels:
Assay type in all cases: cell-based
[1] = system: exsheathed third-stage larvae (xL3) of Haemonchus contortus; experiment: Primary phenotypic screen on xL3s at 20 µM (video recording, 72 h); settings: for phenotype induced in xL3s in the primary screen: 72 h of exposure; for proportion of xL3s exhibiting the phenotype in the primary screen: 72 h, visual inspection of video recordings
Protocol: A library containing 245 compounds (Supplementary Table S1) was curated by the authors (T.K. and B.L.) at the Institute of Pharmaceutical and Medicinal Chemistry, Heinrich-Heine-University Düsseldorf, Germany. Individual compounds were dissolved in 100% high-performance liquid chromatography-grade dimethyl sulfoxide (DMSO; Merck, USA) to achieve stock concentrations of 20 mM. For screening, individual compounds were diluted further to the final concentration of 20 µM in Luria Bertani broth (LB) supplemented with 100 U/mL of penicillin, 100 μg/mL of streptomycin and 0.25 μg/mL of amphotericin B (designated LB*), and tested for activity in vitro against H. contortus.
(§1) Haemonchus contortus (Haecon-5 strain) was maintained in experimental sheep, in accordance with institutional animal ethics approval (permit no. 1714374; The University of Melbourne). Helminth-free Merino sheep (male; eight months of age) were inoculated orally with 7000 third-stage larvae (L3s) of H. contortus. Faecal samples containing H. contortus eggs were collected every day from 21 days following inoculation. These samples were incubated at 27 °C for one week to produce L3s, which were harvested and sieved through two layers of nylon mesh ([…] pore size; Rowe Scientific, Australia) to remove debris and dead larvae, and then stored at 11 °C for up to 6 months until use. To produce exsheathed third-stage larvae (xL3s) for in vitro assays, L3s were incubated in 0.15% (v/v) sodium hypochlorite for 20 min at 37 °C followed by five washes in 0.9% sterile saline by centrifugation at 600× g (5 min) at room temperature (22–24 °C).
Compounds were screened at 20 μM on H. contortus xL3s using an established assay. In brief, diluted test-compounds, negative controls (LB* + 0.5% DMSO) and two positive controls [20 μM of monepantel (Zolvix, Novartis Animal Health, Switzerland) and 20 μM of moxidectin (Cydectin, Virbac, France)] were added to wells of the 96-well microtiter plates (Corning, USA), and xL3s were dispensed at ~300/well to a final volume of 100 µL. Following a 72 h-incubation at 38 °C and 10% (v/v) CO2 at >90% humidity, a video recording (5 s) was taken of each well of the 96-well microtitre plate containing xL3s using a gray–scale camera (Rolera Bolt Scientific CMOS, Teledyne QImaging, Tucson, AZ, USA) and a motorised X–Y axis stage (BioPoint 2, Ludl Electronics Products, Hawthorne, CA, USA) attached to a stereomicroscope (SZ61, Olympus, Shinjuku, Japan). Primary screening was performed in duplicate. A compound was recorded as having activity if it altered worm morphology (phenotype) after 72 h of incubation.

[2] = system: exsheathed third-stage larvae (xL3) of Haemonchus contortus; experiment: Dose-response assay, inhibition of larval motility; settings: for xL3 Motility (72 h) Inhibition (%): concentration not given; for IC50: Haemonchus contortus, 72 h incubation, mean ± SEM, three independent experiments in triplicate
Protocol: as §1
Three compounds (designated MPK18, MPK334 and YAK308) shown to have activity against H. contortus in the primary screen were evaluated for their potency by estimating their half maximal inhibitory concentrations (IC50), calculated in a dose-response assay. In brief, compounds were titrated (18-points, 2-fold serial dilution in 50 μL of LB*, 100 µM down to 0.76 nM), in 96-well microtitre plates and xL3s were dispensed in 50 µL at a density of ~300 per well. All plates were incubated at 38 °C and 10% (v/v) CO2 with >90% humidity. After 72 h of incubation, a video recording (5 s) was taken of each well in the same camera settings as the primary screen (see Section 3.3), and larval motility measured. The motility index (Mi) was calculated from video data using the unique algorithm written in a custom macro, and analysed through the program ImageJ (v.2.0.0, Fiji). Mi data were normalised to a percentage compared with negative control (LB* + 0.5% DMSO). Monepantel and moxidectin were diluted in the same manner, and used as positive control compounds. Assays were performed in triplicate, three times, on separate days. To establish IC50 values, compound concentrations were log10-transformed, fitted using a variable slope four-parameter equation, constraining the maximum value to 100% using a least squares (ordinary) fit model employing GraphPad Prism (v. 9.0.2) software.

[3] = system: exsheathed third-stage larvae (xL3) / fourth-stage larvae (L4) of Haemonchus contortus; experiment: Dose-response assay, inhibition of larval development (xL3 to L4) and phenotype over 7 days; settings: seven days; for IC50: Haemonchus contortus, 168 h; for proportion of larvae exhibiting the phenotype at 100 µM / phenotype of larvae after exposure for 7 days: 100 µM; for phenotype of larvae after exposure for 7 days: xL3s/L4s
Protocol: as §1
Following the measurement of larval motility at 72 h, plates containing xL3s were incubated for four more days at 38 °C [10% (v/v) CO2 and >90% relative humidity] to test the active compounds (MPK18, MPK334 and YAK308) for their effect on the larval development over 7 days. Subsequently, worms were fixed in 1% iodine, and the rate of larval development was assessed microscopically appraising the presence (L4) or absence (xL3) of mouth and pharynx, and direct comparison with negative (untreated) controls (LB* + 0.5% DMSO). Thirty worms from each well were examined at 50-times magnification, and the number of L4s was expressed as a percentage of the total number. Assays were performed in triplicate, three times, on separate days. To establish IC50 values, compound concentrations were log10-transformed, fitted using a variable slope four-parameter equation with constraining the top value to 100% using a least squares (ordinary) fit model using GraphPad Prism (v. 9.0.2) software.

[4] = Toxicity on HepG2 cells (crystal violet staining); settings: HepG2 human hepatoma cells
Protocol: HepG2 human hepatoma cells were seeded into wells of a 96-well microtitre plate in 80 µL of Dulbecco’s modified eagle medium (DMEM), supplemented with 10% foetal bovine serum, 100 U/mL of penicillin, 100 µg/mL of streptomycin and 0.25 µg/mL of amphotericin B (DMEM*) at a density of 1 × 10^5 cells per well. Cells were allowed to adhere for 16 h at 37 °C and 5% (v/v) CO2 at >90% humidity, and incubated with individual, serially-diluted compounds (7-points, 2-fold dilution in DMEM*, from 100 µM to 1.56 µM) in a final volume of 100 µL. Doxorubicin (10 µM) and DMEM* + 0.25% DMSO (vehicle), serving as positive and negative controls, respectively, were added to the individual 96-well plates. Monepantel and moxidectin were also serially diluted—prepared in the same manner as active compounds—and used as ‘negative’ reference controls. After 48 h of incubation, cellular viability was determined by the crystal violet staining assay. The absorbance at 595 nm of treated cells was compared with that of the controls (exposed only to the vehicle, with 100% viability). Compounds and controls were tested in triplicate. To determine the half cytotoxic concentration (CC50) values, compound concentrations were log10-transformed, fitted using a variable slope four-parameter equation with a least squares (ordinary) fit model employing GraphPad Prism (v. 9.0.2) software.

[5] = mean ± SEM, read-out: L4 Development (7 days) IC50 ± SEM

Row | Compound | phenotype induced in xL3s in the primary screen [1] | xL3 Motility (72 h) Inhibition (%) [2] [%] | IC50 [2] [µM] | IC50 [3, 5] [µM] | CC50 at 48 h [4] [µM] | proportion of xL3s exhibiting the phenotype in the primary screen [1] | phenotype induced in xL3s in the primary screen ([1]; listed as YAK 308) | proportion of larvae exhibiting the phenotype at 100 µM [3] [%] | phenotype of larvae after exposure for 7 days [3] | IC50 ([3]; read-out: concentration at which active on larval development (IC50 not determined)) [µM]
1 | CO/N=C1\C[C@]2(C[C@@H]3C[C@@H](C/C=C(\C)C[C@@H](C)/C=C/C=C4\CO[C@@H]5[C@H](O)C(C)=C[C@@H](C(=O)O3)[C@]45O)O2)O[C@H](/C(C)=C/C(C)C)[C@H]1C [Moxidectin, moxidectin, reference compound] | Relaxed | 85.1 | 0.8 ± 0.2 | 12.4 ± 0.1 | > 100 |  |  |  |  | 
2 | COc1cc(OC)cc(C(=O)Nc2nc(-c3ccccc3)cs2)c1 [YAK308] | curved | 34.6 | 52.7 ± 6.7 | 6.5 ± 1.6 | > 100 | ~ 90% | Curved | 22 | evisceration and evi | 
3 | O=C(/C=C/c1ccccc1)c1ccc(Br)cc1O [MPK334] | coiled | 74.2 | 17.1 ± 4.2 | 12.3 ± 2.3 | > 100 | ~ 50% |  | 100 | curved | 
4 | Cc1ccc(/C=C/C(=O)NOCc2ccccc2)cc1 [MPK18] | coiled | 30.0 | 45.2 ± 4.6 |  | > 100 | ~ 50% |  |  | not observed; also recorded: Wild type | > 25
5 | C[C@](C#N)(COc1cc(C#N)ccc1C(F)(F)F)NC(=O)c1ccc(SC(F)(F)F)cc1 [Monepantel, monepantel, reference compound] | Coiled | 90.3 | 0.6 ± 0.1 | 0.4 ± 0.05 | > 100 |  |  |  |  | 

Reference: PMC8126080, “Three Small Molecule Entities (MPK18, MPK334 and YAK308) with Activity against Haemonchus contortus In Vitro” (Molecules, 2021)
